From PubChem BioAssay (NCI)
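GI50 is the concentration that inhibits growth by half. TGI marks complete inhibition of growth.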

What was measured:
Test in all cases: inhibition of tumour cell growth, NCI panel, 384-well format
PC-3 prostate = system: PC-3 prostate
MDA-MB-468 breast = system: MDA-MB-468 breast
A549 NSCLC = system: A549 NSCLC
LOX IMVI melanoma = system: LOX IMVI melanoma
HT29 colon = system: HT29 colon
COLO 205 colon = system: COLO 205 colon
MDA-MB-231 breast = system: MDA-MB-231 breast
CCRF-CEM leukemia = system: CCRF-CEM leukemia
T-47D breast = system: T-47D breast
SF-539 CNS = system: SF-539 CNS
EKVX NSCLC = system: EKVX NSCLC
SNB-19 CNS = system: SNB-19 CNS
ACHN renal = system: ACHN renal
SK-OV-3 ovarian = system: SK-OV-3 ovarian
HCC-2998 colon = system: HCC-2998 colon
OVCAR-3 ovarian = system: OVCAR-3 ovarian
DU-145 prostate = system: DU-145 prostate
MALME-3M melanoma = system: MALME-3M melanoma
HCT-15 colon = system: HCT-15 colon
NCI-H226 lung = system: NCI-H226 lung
UO-31 renal = system: UO-31 renal
NCI-H322M lung = system: NCI-H322M lung
U251 glioblastoma = system: U251 glioblastoma
OVCAR-4 ovarian = system: OVCAR-4 ovarian
NCI-H23 lung = system: NCI-H23 lung
A498 renal = system: A498 renal
IGROV1 ovarian = system: IGROV1 ovarian
SNB-75 CNS = system: SNB-75 CNS
SK-MEL-28 melanoma = system: SK-MEL-28 melanoma
KM12 colon = system: KM12 colon
NCI/ADR-RES ovarian = system: NCI/ADR-RES ovarian
M14 melanoma = system: M14 melanoma
K-562 leukemia = system: K-562 leukemia
SK-MEL-5 melanoma = system: SK-MEL-5 melanoma
NCI-H522 lung = system: NCI-H522 lung
OVCAR-5 ovarian = system: OVCAR-5 ovarian
HOP-62 NSCLC = system: HOP-62 NSCLC
SR leukemia = system: SR leukemia
CAKI-1 renal = system: CAKI-1 renal
MOLT-4 leukemia = system: MOLT-4 leukemia
HOP-92 NSCLC = system: HOP-92 NSCLC
TK-10 renal = system: TK-10 renal
UACC-257 melanoma = system: UACC-257 melanoma
BT-549 breast = system: BT-549 breast
786-0 renal = system: 786-0 renal
MDA-MB-435 melanoma = system: MDA-MB-435 melanoma
HL-60(TB) leukemia = system: HL-60(TB) leukemia
MCF7 breast = system: MCF7 breast
SF-268 CNS = system: SF-268 CNS
SW-620 colon = system: SW-620 colon
HS 578T breast = system: HS 578T breast
OVCAR-8 ovarian = system: OVCAR-8 ovarian
SN12C renal = system: SN12C renal
UACC-62 melanoma = system: UACC-62 melanoma
NCI-H460 NSCLC = system: NCI-H460 NSCLC
RXF 393 renal = system: RXF 393 renal
SF-295 CNS = system: SF-295 CNS
RPMI-8226 leukemia = system: RPMI-8226 leukemia

SMILES: CSc1nc(N)cc(Oc2ccc(-c3nc(Nc4cccc(C(F)(F)F)c4)n[nH]3)cc2)n1
- GI50 (PC-3 prostate): 0.611 µM
- TGI (PC-3 prostate): 3.09 µM
- GI50 (MDA-MB-468 breast): 0.202 µM
- TGI (MDA-MB-468 breast): 0.414 µM
- GI50 (A549 NSCLC): 0.625 µM
- TGI (A549 NSCLC): 5.52 µM
- GI50 (LOX IMVI melanoma): 0.523 µM
- TGI (LOX IMVI melanoma): 1.79 µM
- GI50 (HT29 colon): 0.354 µM
- TGI (HT29 colon): 1.43 µM
- GI50 (COLO 205 colon): 0.489 µM
- TGI (COLO 205 colon): 4.12 µM
- GI50 (MDA-MB-231 breast): 0.487 µM
- TGI (MDA-MB-231 breast): 10 µM
- GI50 (CCRF-CEM leukemia): 0.175 µM
- TGI (CCRF-CEM leukemia): 0.322 µM
- GI50 (T-47D breast): 0.294 µM
- TGI (T-47D breast): 16.9 µM
- GI50 (SF-539 CNS): 0.349 µM
- TGI (SF-539 CNS): 1.35 µM
- GI50 (EKVX NSCLC): 0.599 µM
- TGI (EKVX NSCLC): 4.32 µM
- GI50 (SNB-19 CNS): 0.637 µM
- TGI (SNB-19 CNS): 5.17 µM
- GI50 (ACHN renal): 0.618 µM
- TGI (ACHN renal): 2.73 µM
- GI50 (SK-OV-3 ovarian): 0.394 µM
- TGI (SK-OV-3 ovarian): 2.22 µM
- GI50 (HCC-2998 colon): 0.367 µM
- TGI (HCC-2998 colon): 1.5 µM
- GI50 (OVCAR-3 ovarian): 0.229 µM
- TGI (OVCAR-3 ovarian): 0.492 µM
- GI50 (DU-145 prostate): 0.998 µM
- TGI (DU-145 prostate): 4.08 µM
- GI50 (MALME-3M melanoma): 0.315 µM
- TGI (MALME-3M melanoma): 1 µM
- GI50 (HCT-15 colon): 0.4 µM
- TGI (HCT-15 colon): 1.45 µM
- GI50 (NCI-H226 lung): 1.07 µM
- TGI (NCI-H226 lung): 3.63 µM
- GI50 (UO-31 renal): 0.502 µM
- TGI (UO-31 renal): 14.3 µM
- GI50 (NCI-H322M lung): 1.85 µM
- TGI (NCI-H322M lung): 6.78 µM
- GI50 (U251 glioblastoma): 0.581 µM
- TGI (U251 glioblastoma): 2.11 µM
- GI50 (OVCAR-4 ovarian): 0.457 µM
- TGI (OVCAR-4 ovarian): 2.21 µM
- GI50 (NCI-H23 lung): 0.352 µM
- TGI (NCI-H23 lung): 1.94 µM
- GI50 (A498 renal): 0.421 µM
- TGI (A498 renal): 1.92 µM
- GI50 (IGROV1 ovarian): 0.676 µM
- TGI (IGROV1 ovarian): 3.53 µM
- GI50 (SNB-75 CNS): 0.34 µM
- TGI (SNB-75 CNS): 1.97 µM
- GI50 (SK-MEL-28 melanoma): 0.582 µM
- TGI (SK-MEL-28 melanoma): 3.64 µM
- GI50 (KM12 colon): 0.425 µM
- TGI (KM12 colon): 1.85 µM
- GI50 (NCI/ADR-RES ovarian): 0.676 µM
- TGI (NCI/ADR-RES ovarian): 2.39 µM
- GI50 (M14 melanoma): 0.323 µM
- TGI (M14 melanoma): 1.21 µM
- GI50 (K-562 leukemia): 0.32 µM
- TGI (K-562 leukemia): 0.968 µM
- GI50 (SK-MEL-5 melanoma): 0.237 µM
- TGI (SK-MEL-5 melanoma): 0.55 µM
- GI50 (NCI-H522 lung): 0.241 µM
- TGI (NCI-H522 lung): 0.625 µM
- GI50 (OVCAR-5 ovarian): 2.02 µM
- TGI (OVCAR-5 ovarian): 6.29 µM
- GI50 (HOP-62 NSCLC): 0.452 µM
- TGI (HOP-62 NSCLC): 2.19 µM
- GI50 (SR leukemia): 0.174 µM
- TGI (SR leukemia): 0.333 µM
- GI50 (CAKI-1 renal): 0.548 µM
- TGI (CAKI-1 renal): 5.09 µM
- GI50 (MOLT-4 leukemia): 0.187 µM
- TGI (MOLT-4 leukemia): 0.337 µM
- GI50 (HOP-92 NSCLC): 0.569 µM
- TGI (HOP-92 NSCLC): 3.25 µM
- GI50 (TK-10 renal): 1.51 µM
- TGI (TK-10 renal): 6.94 µM
- GI50 (UACC-257 melanoma): 0.284 µM
- TGI (UACC-257 melanoma): 0.902 µM
- GI50 (BT-549 breast): 0.385 µM
- TGI (BT-549 breast): 1.62 µM
- GI50 ([…]-0 renal): 0.368 µM
- TGI (786-0 renal): 1.59 µM
- GI50 (MDA-MB-435 melanoma): 0.208 µM
- TGI (MDA-MB-435 melanoma): 0.437 µM
- GI50 (HL-60(TB) leukemia): 0.18 µM
- TGI (HL-60(TB) leukemia): 0.325 µM
- GI50 (MCF7 breast): 0.317 µM
- TGI (MCF7 breast): 1.84 µM
- GI50 (SF-268 CNS): 0.463 µM
- TGI (SF-268 CNS): 2.52 µM
- GI50 (SW-620 colon): 0.431 µM
- TGI (SW-620 colon): 6.37 µM
- GI50 (HS 578T breast): 0.191 µM
- TGI (HS 578T breast): 0.423 µM
- GI50 (OVCAR-8 ovarian): 0.645 µM
- TGI (OVCAR-8 ovarian): 2.46 µM
- GI50 (SN12C renal): 0.671 µM
- TGI (SN12C renal): 5.1 µM
- GI50 (UACC-62 melanoma): 0.377 µM
- TGI (UACC-62 melanoma): 2.86 µM
- GI50 (NCI-H460 NSCLC): 0.28 µM
- TGI (NCI-H460 NSCLC): 0.756 µM
- GI50 (RXF 393 renal): 0.326 µM
- TGI (RXF 393 renal): 1.03 µM
- GI50 (SF-295 CNS): 0.458 µM
- TGI (SF-295 CNS): 1.9 µM
- GI50 (RPMI-8226 leukemia): 0.179 µM
- TGI (RPMI-8226 leukemia): 0.368 µM
